Data from PubChem BioAssay AID1259407 (Chemical Carcinogenesis Research Information System (CCRIS), 2018).
Activity calls are given as the source filed them. How the calls were made is not given here.

Test system: CCRIS mutagenicity, Ames/micronucleus/aberration tests
Experiment: CCRIS mutagenicity studies

Measured: mutagenic call

ClCCl
inactive: Test System: AMES SALMONELLA TYPHIMURIUM, Strain/Indicator: TA104, Metabolic Activation: RAT, LIVER, S-9, AROCLOR 1254, Method: STANDARD PLATE inactive; negative | Test System: AMES SALMONELLA TYPHIMURIUM, Strain/Indicator: TA1535, Metabolic Activation: NONE, Method: STANDARD PLATE inactive; negative | Test System: AMES SALMONELLA TYPHIMURIUM, Strain/Indicator: TA1537, Metabolic Activation: NONE, Method: GAS EXPOSURE inactive; negative | Test System: AMES SALMONELLA TYPHIMURIUM, Strain/Indicator: TA1537, Metabolic Activation: RAT, LIVER, S-9, PHENOBARBITAL AND BETA-NAPHTHOFLAVONE, Method: GAS EXPOSURE inactive; negative | Test System: AMES SALMONELLA TYPHIMURIUM, Strain/Indicator: TA2638, Metabolic Activation: NONE, Method: STANDARD PLATE inactive; negative | Test System: CHINESE HAMSTER OVARY, Strain/Indicator: CHO-K1 (HPRT)/6-THIOGUANINE, Metabolic Activation: MOUSE, LIVER, S-100 (15-25%), DL-BUTHIONINE-(S,R)-SULFOXIMINE, Method: SUSPENSION inactive; negative | Test System: E. COLI, Strain/Indicator: K12(AB1157), Metabolic Activation: NONE, Method: SUSPENSION/PLATE inactive; negative | Test System: E. COLI, Strain/Indicator: K12(AB1157), Metabolic Activation: RAT, LIVER, S-9, Method: SUSPENSION/PLATE inactive; negative | Test System: E. COLI, Strain/Indicator: K12(AB1886) UVRA, Metabolic Activation: MOUSE, LIVER, S-9, Method: SUSPENSION/PLATE inactive; negative | Test System: E. COLI, Strain/Indicator: K12(AB1886) UVRA, Metabolic Activation: NONE, Method: SUSPENSION/PLATE inactive; negative | Test System: E. COLI, Strain/Indicator: K12(AB1886) UVRA, Metabolic Activation: RAT, LIVER, S-9, Method: SUSPENSION/PLATE inactive; negative | Test System: E. COLI, Strain/Indicator: WP2 (PKM101), Metabolic Activation: NONE, Method: STANDARD PLATE inactive; negative | Test System: E. COLI, Strain/Indicator: WP2 UVRA (PKM101), Metabolic Activation: NONE, Method: STANDARD PLATE inactive; negative | Test System: Mouse lymphoma, Strain/Indicator: L5178Y (tk+/tk-), Metabolic Activation: None, Method: Suspension/plate inactive; negative | Test System: Mouse lymphoma, Strain/Indicator: L5178Y (tk+/tk-), Metabolic Activation: Rat, Liver, S-9, Aroclor 1254, Method: Suspension/plate inactive; negative
active: Test System: AMES SALMONELLA TYPHIMURIUM, Strain/Indicator: TA1535 (GST+), Metabolic Activation: NONE, Method: STANDARD PLATE active; positive | Test System: AMES SALMONELLA TYPHIMURIUM, Strain/Indicator: TA1535, Metabolic Activation: NONE, Method: GAS EXPOSURE active; positive | Test System: AMES SALMONELLA TYPHIMURIUM, Strain/Indicator: TA1535, Metabolic Activation: RAT, LIVER, S-9, PHENOBARBITAL AND BETA-NAPHTHOFLAVONE, Method: GAS EXPOSURE active; positive | Test System: CHINESE HAMSTER OVARY, Strain/Indicator: CHO-K1 (HPRT)/6-THIOGUANINE, Metabolic Activation: MOUSE, LIVER, S-100 (2.5-25%), 5 MILLIMOLAR GLUTATHIONE, Method: SUSPENSION/PLATE active; positive | Test System: CHINESE HAMSTER OVARY, Strain/Indicator: CHO-K1 (HPRT)/6-THIOGUANINE, Metabolic Activation: MOUSE, LIVER, S-100 (15-35%), 5 MILLIMOLAR GLUTATHIONE, Method: SUSPENSION active; positive | Test System: E. COLI, Strain/Indicator: K12(AB1157), Metabolic Activation: MOUSE, LIVER, S-9, Method: SUSPENSION/PLATE active; positive | Test System: E. COLI, Strain/Indicator: WP2 UVRA (PKM101), Metabolic Activation: NONE active; positive | Test System: E. COLI, Strain/Indicator: WP2 UVRA (PKM101), Metabolic Activation: RAT, LIVER, HOMOGENATE, AROCLOR 1254 active; positive | Test System: E. COLI, Strain/Indicator: WP2 UVRA (PKM101), Metabolic Activation: RAT, LIVER, MICROSOMES, AROCLOR 1254 active; positive | Test System: E. COLI, Strain/Indicator: WP2 UVRA (PKM101), Metabolic Activation: RAT, LIVER, S-9, AROCLOR 1254 active; positive | Test System: E. COLI, Strain/Indicator: WP2 UVRA (PKM101), Metabolic Activation: RAT, LIVER, S-100, AROCLOR 1254 active; positive | Test System: E. COLI, Strain/Indicator: WP2UVRA/PKM101, Metabolic Activation: NONE, Method: GAS EXPOSURE active; positive | Test System: E. COLI, Strain/Indicator: WP2UVRA/PKM101, Metabolic Activation: RAT, LIVER, S-9, PHENOBARBITAL AND BETA-NAPHTHOFLAVONE, Method: GAS EXPOSURE active; positive | Test System: E. COLI, Strain/Indicator: WP2UVRA, Metabolic Activation: NONE, Method: GAS EXPOSURE active; positive | Test System: E. COLI, Strain/Indicator: WP2UVRA, Metabolic Activation: RAT, LIVER, S-9, PHENOBARBITAL AND BETA-NAPHTHOFLAVONE, Method: GAS EXPOSURE active; positive
